Experimental data taken from paper PMC4754833, “Rilpivirine analogs potently inhibit drug-resistant HIV-1 mutants” (Retrovirology, 2016).

What was measured:
HIV-1 RT mutant K101P = test: single round infection assay, K101P; assay type: cell-based; conditions: for IC50: Human immunodeficiency virus 1; for fold-change of IC50 of the mutant relative to WT: K101P vs WT
Protocol: (§1) The human osteosarcoma cell line, HOS, was obtained from Dr. Richard Schwartz (Michigan State University, East Lansing, MI) and grown in Dulbecco’s modified Eagle’s medium (Invitrogen, Carlsbad, CA) supplemented with 5 % (v/v) fetal bovine serum, 5 % newborn calf serum, and penicillin (50 units/ml) plus streptomycin (50 µg/ml; Quality Biological, Gaithersburg, MD). Virion production and single-round infectivity assays were used to determine antiviral activity (IC50 values) of the compounds as previously described.
(§2) pNLNgoMIVR-ΔEnv.LUC has been described previously. The RT open reading frame was removed from pNLNgoMIVR-ΔEnv.LUC (digestion with SpeI and SalI) and inserted between the SpeI and SalI sites of pBluescript II KS+. Using that construct as the wild-type template, we prepared the following HIV-1 RT mutants using the QuikChange II XL (Stratagene, La Jolla, CA) site-directed mutagenesis protocol kit: L100I, K103N, Y181C, Y188L, H221Y, K103N/Y181C, G190A, G190S, M230L, P236L, L100I/K103N, K103N/P225H, V106A/G190A/F227L, V106A, L234I, V106A/F227L, V106A/L234I, V106A/F227L/L234I, E40K, D67E, K101E, V111A, E138K, M184I, M184V, K101E/M184I, K101E/M184V, E138K/M184I, E138K/M184V, K101P, Y181I, and K101P/V179I. The following sense oligonucleotides were used with matching cognate antisense oligonucleotides (not shown) (Integrated DNA Technologies, Coralville, IA) in the mutagenesis: L100I, 5′-[…]-3′; L100I 2-103, 5′-[…]-3′; K103N, 5′-[…]-3′; Y181C, 5′-[…]-3′; Y188L, 5′-[…]-3′; H221Y, 5′-[…]-3′; G190A, 5′-[…]-3′; G190S, 5′-[…]-3′; P225H, 5′-[…]-3′; F227, 5′-[…]-3′; M230L, 5′-[…]-3′; P236L, 5′-[…]-3′; V106A, 5′-[…]-3′; L234I, 5′-[…]-3′; E40K, 5′-[…]-3′; D67E, 5′-[…]-3′; K101E, 5′-[…]-3′; V111A, 5′-[…]-3′; E138K, 5′-[…]-3′; M184I, 5′-[…]-3′; M184V, 5′-[…]-3′; K101P, 5′-[…]-3′; Y181I, 5′-[…]-3′; K101P/V179I, 5′-[…]-3′. The double mutants K103N/Y181C, K103N/P225H, and L100I/K103N were made using the previously generated K103N mutant and the appropriate oligonucleotides to add the second mutation, Y181C, P225, and L100I respectively. The double mutants V106A/F227L and V106A/L234I were prepared using the previously generated V106A mutant and the appropriate oligonucleotides to add the second mutation, F227L and L234I, respectively. The double mutants K101E/M184I and K101E/M184V were constructed using the previously generated K101E mutant and the appropriate oligonucleotides to add the second mutation, M184I and M184V, respectively. The double mutants E138K/M184I and E138K/M184V were constructed using the previously generated E138K mutant and the appropriate oligonucleotides for the second mutation, M184I and M184V, respectively. The triple mutant V106A/F227L/L234I was made using the previously generated V106A/F227L double mutant and the appropriate oligonucleotides for the third mutation, L234I. The triple mutant V106A/G190A/F227L was constructed in a series of steps using the previously generated V106A mutant and the appropriate oligonucleotides for the second mutation, G190A, to generate the double mutant V106A/G190A, and then the triple mutant was made using double mutant V106A/G190A and oligonucleotides for the third mutation, F227L. The DNA sequence of each construct was verified by DNA sequence determination. The sequences encoding the mutant RTs were then subcloned into pNLNgoMIVR-ΔEnv.LUC (between the KpnI and SalI sites) to produce the mutant HIV-1 constructs. These DNA sequences were also checked independently by DNA sequence determination.
(§3) 10.1186/s12977-016-0244-2 The IC50 values (nM) of RPV and the RPV analogs were determined against the NNRTI resistant mutants were measured by using a single round infection assay, n = 4. The concentrations (nM) are measured by reductions in luciferase reporter activity followed by the standard deviations. […]

HIV-1 RT mutant M230L = test: single round infection assay, M230L; assay type: cell-based; conditions: for fold-change of IC50 of the mutant relative to WT: M230L vs WT; for IC50: ± SD, n=4, limit of detection 100 nM
Protocol: as §1, §2, §3

HIV-1 RT mutant H221Y = test system: HIV-1 RT mutant H221Y; set-up: method as in PMID 23217210; conditions: previous study; cited from earlier work
HIV-1 RT mutant Y181C = test system: HIV-1 RT mutant Y181C; set-up: method as in PMID 23217210; conditions: previous study; cited from earlier work
HIV-1 RT mutant E40K = test: single round infection assay, E40K; assay type: cell-based; conditions: for fold-change of IC50 of the mutant relative to WT: E40K vs WT
Protocol: as §1, §2, §3

WT HIV-1 = test: single round infection luciferase assay, WT HIV-1; assay type: cell-based; conditions: Human immunodeficiency virus 1
Protocol: as §1, §2, §3

[1] = test system: HIV-1 RT mutant E138K/M184V; test: single round infection assay, E138K/M184V; assay type: cell-based; conditions: for fold-change of IC50 of the mutant relative to WT: E138K/M184V vs WT; for IC50: ± SD, n=4
Protocol: as §1, §2, §3

HIV-1 RT mutant P236L = test: single round infection assay, P236L; assay type: cell-based; conditions: for IC50: Human immunodeficiency virus 1
Protocol: as §1, §2, §3

HIV-1 RT mutant V106A = test: single round infection assay, V106A; assay type: cell-based; conditions: for fold-change of IC50 of the mutant relative to WT: V106A vs WT
Protocol: as §1, §2, §3

HIV-1 RT mutant K101E = test: single round infection assay, K101E; assay type: cell-based; conditions: for IC50: ± SD, n=4; for fold-change of IC50 of the mutant relative to WT: K101E vs WT
Protocol: as §1, §2, §3

HIV-1 RT mutant D67E = test: single round infection assay, D67E; assay type: cell-based; conditions: for fold-change of IC50 of the mutant relative to WT: D67E vs WT; for IC50: ± SD, n=4
Protocol: as §1, §2, §3

[2] = test system: HIV-1 RT mutant V106A/F227L/L234I; test: single round infection assay, V106A/F227L/L234I; assay type: cell-based; conditions: V106A/F227L/L234I vs WT
Protocol: as §1, §2, §3

[3] = test system: HIV-1 RT mutant K101E/M184V; test: single round infection assay, K101E/M184V; assay type: cell-based; conditions: for fold-change of IC50 of the mutant relative to WT: K101E/M184V vs WT; for IC50: ± SD, n=4
Protocol: as §1, §2, §3

[4] = Human immunodeficiency virus 1, E138K/M184V
[5] = Human immunodeficiency virus 1, K101E
[6] = Human immunodeficiency virus 1, D67E
[7] = Human immunodeficiency virus 1, M230L
[8] = Human immunodeficiency virus 1, K101E/M184V

Structure (SMILES)	IC50 (HIV-1 RT mutant K101P)	fold-change of IC50 of the mutant relative to WT (HIV-1 RT mutant K101P)	fold-change of IC50 of the mutant relative to WT (HIV-1 RT mutant M230L)	IC50 (HIV-1 RT mutant H221Y)	IC50 (HIV-1 RT mutant Y181C)	IC50 (WT HIV-1)	fold-change of IC50 of the mutant relative to WT [1]	IC50 ([1]; E138K/M184V)	IC50 [1, 4]	IC50 (HIV-1 RT mutant P236L)	IC50 (HIV-1 RT mutant K101E; [5])	fold-change of IC50 of the mutant relative to WT (HIV-1 RT mutant K101E)	IC50 (HIV-1 RT mutant K101E; K101E)	fold-change of IC50 of the mutant relative to WT (HIV-1 RT mutant D67E)	fold-change of IC50 of the mutant relative to WT [2]	IC50 (HIV-1 RT mutant D67E; [6])	fold-change of IC50 of the mutant relative to WT [3]	IC50 (HIV-1 RT mutant M230L; [7])	other results
Cc1cc(/C=C/C#N)cc(C)c1Nc1ccnc(Nc2ccc(C#N)cc2)n1 [RPV, rilpivirine]	6.2 nM	26	7	< 7 nM	< 7 nM	0.24 ± 0.1 nM	5	1.3 ± 0.4 nM	< 2.5 nM	0.2 nM	< 2.5 nM	11	2.6 ± 1.6 nM	3	–	–	–	–	fold-change of IC50 of the mutant relative to WT (HIV-1 RT mutant E40K): < 2; fold-change of IC50 of the mutant relative to WT (HIV-1 RT mutant V106A): < 2
Cc1cc(/C=C/C#N)cc(C)c1Nc1nc(Nc2ccc(C#N)cc2)ncc1[N+](=O)[O-] [compound 6]	2.5 nM	5	6	< 7 nM	< 7 nM	0.5 ± 0.17 nM	3	1.63 ± 0.08 nM	< 2.5 nM	0.23 ± 0.06 nM	< 2.5 nM	5	2.6 ± 0.96 nM	3	2	< 2.5 nM	2	–	fold-change of IC50 of the mutant relative to WT (HIV-1 RT mutant E40K): 2; IC50 (HIV-1 RT mutant D67E; D67E): 1.7 ± 0.14 nM
Cc1cc(/C=C/C#N)cc(C)c1Nc1nc(Nc2ccc(C#N)cc2)ncc1N [compound 7]	9 nM	12	5	< 7 nM	< 7 nM	0.78 ± 0.2 nM	3	2.4 ± 0.2 nM	< 2.5 nM	0.22 ± 0.06 nM	< 2.5 nM	3	2.3 ± 1.2 nM	6	–	4.5 ± 1.1 nM	–	< 6.1 nM	IC50 (HIV-1 RT mutant M230L; M230L): 4 ± 2 nM
Cc1cc(/C=C/C#N)cc(C)c1Nc1ncc([N+](=O)[O-])c(Nc2ccc(C#N)cc2)n1 [compound 8]	9.9 nM	6	7	< 7 nM	< 7 nM	1.6 ± 0.2 nM	< 2	–	–	0.61 ± 0.07 nM	10.1 nM	6	–	8	< 2	12.7 nM	–	11.9 nM	–
Cc1cc(/C=C/C#N)cc(C)c1Nc1nc(Nc2ccc(C#N)cc2)c2nc[nH]c2n1 [compound 13]	18.1 nM	70	8	< 7 nM	< 7 nM	0.26 ± 0.04 nM	4	–	–	0.31 ± 0.02 nM	–	4	–	6	–	< 2.5 nM	2	–	fold-change of IC50 of the mutant relative to WT (HIV-1 RT mutant P236L; P236L vs WT): < 2; IC50 (HIV-1 RT mutant D67E; D67E): 1.6 ± 0.4 nM
Cc1cc(/C=C/C#N)cc(C)c1Nc1nc(Nc2ccc(C(F)(F)F)cc2)c2nc[nH]c2n1 [compound 15]	> 100 nM	–	10	< 7 nM	< 7 nM	1.7 ± 0.3 nM	< 2	3.1 ± 0.4 nM	< 6 nM	0.9 ± 0.08 nM	< 6 nM	4	6.2 ± 1.2 nM	8	–	13.1 nM	2	16.8 nM	fold-change of IC50 of the mutant relative to WT (HIV-1 RT mutant V106A): < 2; IC50 [3, 8]: < 6 nM; IC50 ([3]; K101E/M184V): 3.8 ± 0.42 nM
Cc1cc(/C=C/C#N)cc(C)c1Nc1ncc2ncn(-c3ccc(C#N)cc3)c2n1 [compound 26]	> 100 nM	–	–	–	–	7.7 nM	< 2	–	13.2 ± 2.3 nM	2.91 nM	56.1 ± 4.1 nM	7	–	8	5	62.3 ± 1.3 nM	< 2	> 100 nM	IC50 (HIV-1 RT mutant E40K; Human immunodeficiency virus 1, E40K, ± SD, n=4): 4.2 ± 0.8 nM; IC50 (HIV-1 RT mutant V106A; Human immunodeficiency virus 1, V106A (selected by DOR), ± SD, n=4): 4.9 ± 1.3 nM; IC50 [3, 8]: 9.1 ± 0.1 nM
Cc1cc(/C=C/C#N)cc(C)c1-n1cnc2cnc(Nc3ccc(C#N)cc3)nc21 [compound 27]	4.9 nM	8	7	< 7 nM	< 7 nM	0.58 ± 0.24 nM	3	1.8 ± 0.8 nM	< 2.5 nM	0.2 ± 0.04 nM	–	2	–	2	< 2	–	< 2	< 6.1 nM	IC50 (HIV-1 RT mutant M230L; M230L): 4.2 ± 0.5 nM
